Literature values in US6017948A, “Water-miscible pharmaceutical compositions” (Supergen, Inc., priority 1998, dated 2000).

How the values were obtained:
animals = settings: chronic high doses (more than 100 mg/kg)
breast cancer = settings: single-agent phase II
[1] = tested on: previously untreated non-small-cell lung cancer; settings: single-agent phase II
head and neck cancer = settings: single-agent phase II
[2] = tested on: refractory ovarian cancer; settings: single-agent phase II

Structure (SMILES) | toxic effects (animals) | effect on tubulin polymer / microtubule assembly (tubulin polymer) | response rates (complete and partial) (breast cancer) | response rates (complete and partial) [1] | response rates (complete and partial) (head and neck cancer) | response rates (complete and partial) [2]
CCCCC(CC)COC(=O)c1ccccc1C(=O)OCC(CC)CCCC (stereo not drawn) [DEHP, diethylhexylphthalate] | growth retardation, liver weight increase, liver damage, testicular atrophy, teratogenicity, and carcinogenicity | – | – | – | – | –
CC(=O)O[C@H]1C(=O)[C@@]2(C)[C@H]([C@H](OC(=O)c3ccccc3)[C@]3(O)C[C@H](OC(=O)[C@H](O)[C@@H](NC(=O)c4ccccc4)c4ccccc4)C(C)=C1C3(C)C)[C@]1(OC(C)=O)CO[C@@H]1C[C@@H]2O [paclitaxel] | – | stabilizes the tubulin polymer and promotes microtubule assembly | Encouraging response rates | Encouraging response rates | Encouraging response rates | Encouraging response rates
